In patent US10508090B2, “Sulfonamides as GPR40- and GPR120-agonists” (DOMPÉ FARMACEUTICI S.P.A., priority 2016, dated 2019):

Experiments:
STC-1 cells = experiment: In vitro GLP-1 secretion in STC-1 cells (ELISA); type: cell-based, murine; conditions: for fold induction at 30 µM: Mus musculus, STC-1, 0.5 h, compound at 30 μM for 30 minutes, STC-1 cells, read-out: GLP-1 RELEASE STC-1, fold of increase over DMSO
Description: (§1) GPR120/40 Activation: In Vitro GLP-1 Secretion
(§2) 2×10^5 STC-1 cells were seeded in a 12-plate and 24 hours later were treated with selected compounds. 1×10^6 NCI-H716 cells were differentiated in matrigel-coated 12-plate and treated 48 h hours later.
(§3) The day of the experiment, wells were washed once with 1 ml of PBS and then cells were stimulated with 0.5 ml of DMEM (w/o serum, w/o phenol-red) containing 30 μM of selected compounds in STC1 and 100 μM in differentiated NCIH716 for 30 minutes. DMSO has been used as negative control, α-linolenic acid (ALA) (endogenous agonist) as positive control. After stimulations, supernatants were collected, centrifuged at 4000 rpm for 4′ at 4° C., and used for the GLP1 detection by ELISA.

human GPR120 = biological target: T1, human GPR120 (Homo sapiens, UniProt Q5NUL3); experiment: In vitro Ca2+ mobilization, CHO-k1 cells stably expressing human GPR120; type: cell-based; conditions: for AC50: intracellular calcium, CHO-k1 cells expressing human GPR120, read-out: Ca2+ hGPR120 AC50
T1 construct: expressed in transfected cells; host or cells: CHO-k1
T1 sequence (Q5NUL3 1-361): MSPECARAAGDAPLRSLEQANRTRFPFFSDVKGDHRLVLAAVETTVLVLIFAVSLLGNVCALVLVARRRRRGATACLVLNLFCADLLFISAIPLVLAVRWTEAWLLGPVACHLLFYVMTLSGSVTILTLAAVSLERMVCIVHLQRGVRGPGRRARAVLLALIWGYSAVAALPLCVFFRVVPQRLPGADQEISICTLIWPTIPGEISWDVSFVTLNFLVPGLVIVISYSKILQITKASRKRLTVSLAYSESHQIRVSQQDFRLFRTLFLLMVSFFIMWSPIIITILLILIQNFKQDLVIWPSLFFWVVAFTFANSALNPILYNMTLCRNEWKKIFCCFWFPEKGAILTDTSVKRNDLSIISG
Description: (§4) GPR120/40 Activation: In Vitro Ca^2+ Mobilization
(§5) The activation of GPR120/40 by all compounds was determined by measuring changes in intracellular calcium levels using a Ca^2+ sensitive fluorescent dye.
(§6) The experiments were performed using CHO-k1 cells stably expressing the human GPR120 or GPR40. Cells were seeded 10000 cells/well in 384-plates in complete medium and grown overnight at 37° C., 5% CO2. 24 h after seeding, cell culture media was removed and cells were loaded with the fluorescent Ca^2+ indicator (Fluo-8 NW dye in Tyrode's buffer). Dye-loaded cell plates were incubated for 1 h at room temperature under a yellow light sodium lamp.
(§7) Cell were treated with test compounds and controls at 10, 30 and 60 μM. The kinetic response was monitored over a period of 7 minutes (using FLIPRTETRA system). A second injection of 3× concentrated reference agonist at ˜EC50 were then administered to cells and the signal of the emitted fluorescence was measured over a period of additional 3 minutes. The agonist effect is expressed as a percentage of activation, with 100% activation being a result in which the Response Values of the test wells reach a level identical to the one of the Stimulator Controls (alpha linolenic acid reference agonist EC100). 0% activation is a result in which the Response Values of the test wells reach a level identical to the one of the Neutral Controls (assay buffer) in the AGO_KRV (Agonist Kinetic Response Value) response value.

human GPR40 = biological target: T2, human GPR40 (Homo sapiens, UniProt O14842); experiment: In vitro Ca2+ mobilization, CHO-k1 cells stably expressing human GPR40; type: cell-based; conditions: for AC50 / Ca2+ hGPR40 AC50: intracellular calcium, CHO-k1 cells expressing human GPR40; for AC50: read-out: Ca2+ hGPR40 AC50
T2 construct: expressed in transfected cells; host or cells: CHO-k1
T2 sequence (O14842 whole entry): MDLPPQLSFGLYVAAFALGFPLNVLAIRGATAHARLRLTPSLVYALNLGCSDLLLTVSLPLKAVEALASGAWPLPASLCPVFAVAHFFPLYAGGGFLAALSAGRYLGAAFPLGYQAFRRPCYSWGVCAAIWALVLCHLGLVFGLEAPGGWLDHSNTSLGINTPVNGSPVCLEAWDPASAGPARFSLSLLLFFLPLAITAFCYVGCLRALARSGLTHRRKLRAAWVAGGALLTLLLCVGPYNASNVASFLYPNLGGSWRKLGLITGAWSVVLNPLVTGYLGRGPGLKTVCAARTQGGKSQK
Description: as §4, §5, §6, §7

NCI-H716 cells = experiment: In vitro GLP-1 secretion in differentiated NCI-H716 cells (ELISA); type: cell-based, human; conditions: for fold induction at 100 µM: Homo sapiens, NCI-H716, 0.5 h, compound at 100 μM for 30 minutes, differentiated NCI-H716 cells, read-out: GLP-1 RELEASE NCI, fold of increase over DMSO
Description: as §1, §2, §3

Structure (SMILES)	agonistic activity on GPR120 (AC50 in the calcium mobilization assay), in words (human GPR120)	AC50 (human GPR120) [µM]	agonistic activity on GPR40 (AC50 in the calcium mobilization assay), in words (human GPR40)	AC50 (human GPR40) [µM]	Ca2+ hGPR40 AC50 (human GPR40)	GLP-1 secretion in STC1 (murine) cells, in words (STC-1 cells)	fold induction at 30 µM (STC-1 cells)	GLP-1 secretion in NCI-H716 (human) cells, in words (NCI-H716 cells)	fold induction at 100 µM (NCI-H716 cells)
Cc1cc(-c2ccccc2)cc(C)c1NS(=O)(=O)c1cccc(CCCCCCC(=O)O)c1 [Example 32, 7-(3-(N-(3,5-dimethyl-[1,1′-biphenyl]-4-yl)sulfamoyl)phenyl)heptanoic acid]		11.1		23.7			3.67 ± 0.9		4.51 ± 0.59
Cn1nnc(NS(=O)(=O)c2cccc(CCCCCCC(=O)O)c2)n1 [Example 27, 7-(3-(N-(2-methyl-2H-tetrazol-5-yl)sulfamoyl)phenyl)heptanoic acid]		10.1		10.7			1.99 ± 0.51		2.89 ± 0.55
O=C(O)CCCCCCc1cccc(S(=O)(=O)Nc2cccc3c(O)cccc23)c1 [Example 23, 7-{3-[(5-hydroxynaphthalen-1-yl)sulfamoyl]phenyl}heptanoic acid]		7.1		8.2			4.34 ± 0.51		4.69 ± 0.41
CC/C=C\C/C=C\C/C=C\CCCCCCCC(=O)O [ALA, α-linolenic acid, reference compound]							6.61		1.52
Cc1nc(NS(=O)(=O)c2cccc(CCCCCCC(=O)O)c2)oc1C [Example 15, 7-(3-(N-(4,5-dimethyloxazol-2-yl)sulfamoyl)phenyl)heptanoic acid]		24.1		27.5			1.19 ± 0.89		1.8 ± 0.91
Cc1cc(F)cc(C)c1NS(=O)(=O)c1cccc(CCCCCCC(=O)O)c1 [Example 1, 7-(3-(N-(4-fluoro-2,6-dimethylphenyl)sulfamoyl)phenyl)heptanoic acid]	low microMolar range	5.24	low microMolar range	140		efficacious	1.87 ± 0.5	efficacious	1.08 ± 0.1
CC1COC(NS(=O)(=O)c2cccc(CCCCCCC(=O)O)c2)=N1 (stereo not drawn) [Example 28, 7-(3-(N-(4-methyl-4,5-dihydrooxazol-2-yl)sulfamoyl)phenyl)heptanoic acid]		16.1		7.1			3.64 ± 0.43		3.88 ± 1.96
Cc1nc(NS(=O)(=O)c2cccc(CCCCCCC(=O)O)c2)sc1C [Example 14, 7-(3-(N-(4,5-dimethylthiazol-2-yl)sulfamoyl)phenyl)heptanoic acid]		17.4		20.8			1.37 ± 0.11		1.81 ± 0.67
CCn1ncc(NS(=O)(=O)c2cccc(CCCCCCC(=O)O)c2)n1 [Example 26, 7-(3-(N-(2-ethyl-2H-1,2,3-triazol-4-yl)sulfamoyl)phenyl)heptanoic acid]		18.9		20.1			1.82 ± 0.41		2.81 ± 0.72
Cc1cc(Oc2ccccc2)cc(C)c1NS(=O)(=O)c1cccc(CCCCCCC(=O)O)c1 [Example 33, 7-(3-(N-(2,6-dimethyl-4-phenoxyphenyl)sulfamoyl)phenyl)heptanoic acid]	low microMolar range	18	low microMolar range		Inactive	efficacious	3 ± 1.82	efficacious	1.58 ± 1.27
O=C(O)CCCCCCc1cccc(S(=O)(=O)Nc2csnc2-c2ccccc2)c1 [Example 30, 7-(3-(N-(3-phenylisothiazol-4-yl)sulfamoyl)phenyl)heptanoic acid]		37.1		31.2			2.94 ± 1.12		2.13 ± 1.83
Cc1cc(F)cc(-c2ccccc2)c1NS(=O)(=O)c1cccc(CCCCCCC(=O)O)c1 [Example 10, 7-(3-(N-(5-fluoro-3-methyl-[1,1′-biphenyl]-2-yl)sulfamoyl)phenyl)heptanoic acid]	low microMolar range	16.5	low microMolar range	12.8		efficacious	4.7	efficacious	2.5

Continued, in another order:

agonistic activity on GPR120 (AC50 in the calcium mobilization assay), in words (human GPR120)	AC50 (human GPR120) [µM]	agonistic activity on GPR40 (AC50 in the calcium mobilization assay), in words (human GPR40)	AC50 (human GPR40) [µM]	Ca2+ hGPR40 AC50 (human GPR40)	Structure (SMILES)	GLP-1 secretion in STC1 (murine) cells, in words (STC-1 cells)	fold induction at 30 µM (STC-1 cells)	GLP-1 secretion in NCI-H716 (human) cells, in words (NCI-H716 cells)	fold induction at 100 µM (NCI-H716 cells)
low microMolar range	4.36	low microMolar range	41.3		Cc1cc(Cl)cc(C)c1NS(=O)(=O)c1cccc(CCCCCCC(=O)O)c1 [Example 4, 7-(3-(N-(4-chloro-2,6-dimethylphenyl)sulfamoyl)phenyl)heptanoic acid]	efficacious	4.1 ± 0.54	efficacious	1.92 ± 0.57
	5.9		13.3		Cc1cc(F)cc(C)c1C(=O)NS(=O)(=O)c1cccc(CCCCCCC(=O)O)c1 [Example 24, 7-{3-[(4-fluoro-2,6-dimethylbenzoyl)sulfamoyl]phenyl}heptanoic acid]		4.19 ± 0.72		5.01 ± 0.99
low microMolar range	1.98	low microMolar range	12.9		Cc1cc(C(C)C)cc(C)c1NS(=O)(=O)c1cccc(CCCCCCC(=O)O)c1 [Example 3, 7-(3-(N-(4-isopropyl-2,6-dimethylphenyl)sulfamoyl)phenyl)heptanoic acid]	efficacious	2.7 ± 0.31	efficacious	2.5 ± 0.11
	7		12.4		Cc1cc(OCc2ccccc2)cc(C)c1NS(=O)(=O)c1cccc(CCCCCCC(=O)O)c1 [Example 34, 7-(3-(N-(4-(benzyloxy)-2,6-dimethylphenyl)sulfamoyl)phenyl)heptanoic acid]		5.5 ± 0.73		4.58 ± 0.26
low microMolar range	5.72	low microMolar range	19.8		Cc1cc(Br)cc(C)c1NS(=O)(=O)c1cccc(CCCCCCC(=O)O)c1 [Example 7, 7-(3-(N-(4-bromo-2,6-dimethylphenyl)sulfamoyl)phenyl)heptanoic acid]	efficacious	1.8 ± 0.24	efficacious	1.9 ± 0.15
low microMolar range	6.2	low microMolar range		Inactive	Cc1cc(C)c(NS(=O)(=O)c2cccc(CCCCCC(=O)O)c2)c(C)c1 [Example 11, 6-{3-[(2,4,6-trimethylphenyl)sulfamoyl]phenyl}hexanoic acid]	efficacious	1.71 ± 0.21	efficacious	1.87 ± 0.27
	4.3		6.1		Cc1cc(F)cc(C)c1NS(=O)(=O)c1ccc(CCCCCCC(=O)O)cc1 [Example 25, 7-{4-[(4-fluoro-2,6-dimethylphenyl)sulfamoyl]phenyl}heptanoic acid]		4.1 ± 0.78		3.2 ± 0.31
